Details of series [1]: method as in PMID 17112238. Conditions: cited from earlier work.
Series [2] in a line: Iron binding constant, calcein displacement assay. Format: physicochemical. Conditions: calcein displacement. An excerpt: Calcein displacement assay in the presence of varied concentrations of flavonoids and catechols has been used. Calcein release from its complex with iron was monitored by fluorescence as described in [26].
A short description of series [3]: Non-enzymatic ferricyanide reduction rate constant. Format: physicochemical. Conditions: 1 mM ferricyanide, pH 7.0. The protocol: The rate of ferricyanide reduction by individual flavonoids was measured spectrophotometrically at 420 nm with the fixed concentration of ferricyanide (1 mM) and varied concentrations of a flavonoid in Potassium-phosphate buffer, pH 7.0. The rate constant for direct ferricyanide reduction was calculated from the slope of the dependence reaction rate vs flavonoid concentration and used as a measure of flavonoid non-specific reducing power.

In a further series the target is HIF PHD2. Conditions: read-out: HIF PHD2 apparent inhibition constant; cited from earlier work.
The test system of series [4] is rotenone-induced hemiparkinsonian rats. Further details: method as in PMID 23357119. Conditions: 25-75 mg/kg twice a day for 4 days; cited from earlier work.
In series [5] the test system is Neh2-luc reporter (SH-SY5Y cell line). Kind of series: Neh2-luc reporter assay. The class given is cell-based. The protocol:
(§1) SH-SY5Y cell lines stably expressing HIF1 ODD-luc or Neh2-luc reporters were grown in the DMEM/F12 supplemented with GlutaMAX (Thermo Fisher Scientific) containing 10% FBS, 100 U/ml penicillin, and 100 μg/ml streptomycin and plated into 384-well white flat-bottom plates at 7,000 cell/well in 30 µl serum and incubated overnight at 37°C, 5% CO2. The next day compounds were added to a final concentration of 10 µM and the plates were incubated for 3 hours at 37°C. Reporter activation after 3 h incubation with the studied compound was compared to that for ciclopirox (HIF1 ODD-luc reporter) or TBHQ (Neh2-luc reporter), taken as 100%. Luciferase reporter activity was measured with a SteadyGlo reagent from Promega providing stable reading for 1 h.
(§2) Cells were plated at the density of 25,000 cell per well using a WellMate multichannel dispenser from Matrix (Thermo Fisher Scientific, Waltham, MA) and grown overnight on DMEM/F12+GlutaMAX (100 µl per well). Then an inhibitor was added, and the plates were incubated for a fixed time interval; the medium was removed, cells lysed, and luciferase activity was measured on a SpectraMax M5e platereader (Molecular Devices, Sunnyvale, CA) with BrightGlo™ reagent (Promega, Madison, WI). The reporter activation was normalized to the background luminescence. The effect of 0.5 mM N-acetylcysteine (NAC) was studied by simultaneous addition of 5 µL of 10 mM stock of NAC in water and 2 µL of 50x stock solutions of a flavonoid in DMSO.
In general terms: Reporter assays use an easily measured gene product as a stand-in for the process of interest.

Series [6] relates to HRE-luciferase reporter (HT22 hippocampal cell line). Kind of series: HRE-luc reporter assay. The class given is cell-based. Conditions: Mus musculus, HT-22, 3 h; at 10 µM; read-out: HRE-luc fold activation. The text has this: A promoter-reporter construct that contained 68 bp of a known hypoxia and HIF-1 regulated gene, enolase, containing a wild type hypoxia response element (HRE, 5’-RCTGT-3’), is a widely used approach for screening for HIF activators of different mechanism of action. A cell-based assay with HRE-luciferase reporter system is based on transfected immortalized hippocampal cell line (HT22) and allows screening for a broad spectrum of compounds that include: activators of HIF transcription; activators of HIF binding to HRE; and effectors of HIF protein stability (PHD inhibitors, pVHL & proteasome inhibitors). The assay was performed the same way as for HIF ODD-luc reporter except the cells were plated at the density of 10,000 cell per well and incubated overnight.

Series [7] concerns HIF1 ODD-luc reporter (SH-SY5Y cell line). Kind of series: HIF1 ODD-luc reporter assay. The class given is cell-based. Conditions: Homo sapiens, SH-SY5Y. The protocol:
as §1, §2

Take `O=c1c(O)c(-c2ccc(O)c(O)c2)oc2cc(O)cc(O)c12` [compound 11, Quercetin]: the EHOMO in series [1] is reported as -8.72 eV. In series [2], the “Iron complex Diss. Const” value was 2.7 ± 0.3 µM. Besides, the “FC red Rate Const” value in series [3] turned out to be 366000 ± 39000 M⁻¹ s⁻¹. Moreover, the Ki on HIF PHD2 is 10000 nM. Besides, the “neuroprotection in rotenone model” value in series [4] was “neuroprotective”. Also, the 50% effective concentration (EC50) was 2000 nM in series [5] (Homo sapiens, SH-SY5Y, Neh2-luc) and about 2500 nM in series [7]. Also, the fold induction at 10 µM in series [5] (Homo sapiens, SH-SY5Y, at 10 µM, 3 h incubation, read-out: Neh2-luc fold activation) was 24 ± 3; in series [6], 2 ± 0.2; in series [7] (3 h, at 10 µM, 3 h incubation, read-out: ODD-luc fold activation), 1.5 ± 0.2. For the same molecule, the “effect of NAC on Neh2-luc reporter activation” value in series [5] (simultaneous addition of 0.5 mM NAC, results not shown) is recorded as “no effect”.

As a reminder, the EC50 is the midpoint of the concentration-response curve.

Source of the values: publication PMC5201116, “Bioactive Flavonoids and Catechols as Hif1 and Nrf2 Protein Stabilizers - Implications for Parkinson’s Disease” (Aging and Disease, 2016).
